Earlier results on one compound are cited in patent publication US20210275546A1, “HIGH DRUG LOAD SOLID ORAL DOSAGE FORMS OF DEXAMETHASONE” (Jubilant Pharma Holdings Inc., priority 2020, published 2021).

Structures are written as SMILES. Entries after “also recorded” stand apart in the source; their conditions may differ.

Take `C[C@@H]1C[C@H]2[C@@H]3CCC4=CC(=O)C=C[C@]4(C)[C@@]3(F)[C@@H](O)C[C@]2(C)[C@@]1(O)C(=O)CO` [Dexamethasone, 9-fluoro-11β,17,21trihydroxy-16α-methylpregna-1,4-diene-3,20-dione]: for the setting “acetone”, the solubility in acetone entry is on record as “sparingly soluble”. In addition, under “dichloromethane”, the solubility in dichloromethane entry is on record as “slightly soluble”. In addition, the solubility in ethanol result (ethanol) is “sparingly soluble”. For the setting “methanol”, the solubility in methanol result is recorded as “sparingly soluble”. In addition, the solubility in water result (water) is “practically insoluble; also recorded: poorly water-soluble”.
